The text below walks through data of patent US20260325685A1, “Radiopharmaceutical Compositions Targeting Carbonic Anhydrase IX and Uses Thereof” (RayzeBio, Inc., priority 2023, published 2026).

The target in one experiment is T1, human CA-XII (Homo sapiens, UniProt O43570).
T1 construct: purchased Creative BioMart CA12-261H
Kind of experiment: Surface Plasmon Resonance (SPR) binding kinetics to recombinant human CA-XII (Biacore 8K, single-cycle kinetics, 1:1 binding model). The method, then: (§1) G1. Surface Plasmon Resonance Assay Conditions for hCA-IX and hCA-XII
(§2) Surface Plasmon Resonance (SPR) experiments were conducted on a Biacore 8K instrument (Cytiva, Marlborough, MA) to determine the binding kinetics of the compound to recombinant human CA-IX (Acro, CA9-H82E3) and CA-XII (Creative BioMart, CA12-261H) proteins. The ligands were diluted to 10 μg/mL in PBS-P+ buffer (20 mM phosphate buffer, pH 7.4, with 2.7 mM KCl, 137 mM NaCl, and 0.05% Tween 20) and captured on Series S Streptavidin Sensor Chips (Cytiva, 29699621) to 1200-1800 response units (RU) using a flow rate of 5 μL/min and injection times of 180 seconds for human CA-IX and 75 seconds for human CA-XII. Analyte binding was evaluated using a single-cycle kinetics method over 9 analyte concentrations (100-0.39 nM) in PBS-P+ buffer with 1% DMSO using a 50 μL/min. flow rate, 120 second association time, and 1200 second dissociation time. The flow cell temperature was set to 25° C. Analyte binding curves were fit to a 1:1 binding kinetic model in Biacore Insight Evaluation software (version 4.0.8.20368) following reference flow cell subtraction and DMSO correction to derive the association and dissociation binding constants.

For a further experiment, the target named is T2, human CA-IX (Homo sapiens, UniProt Q16790).
T2 construct: purchased Acro CA9-H82E3
The experiment can be described thus: Surface Plasmon Resonance (SPR) binding kinetics to recombinant human CA-IX (Biacore 8K, single-cycle kinetics, 1:1 binding model). On the procedure: as §1, §2

[1] abbreviates: Chelated Metal: Lu-175, 25° C., pH 7.4, read-out: CAXII KD.
The mark [2] stands for this setting: Chelated Metal: Lu-175; SPR, 25° C., pH 7.4; read-out: CAIX KD.

Where two headings read alike, the source gives them in different places.

T1 sequence (O43570 25-354): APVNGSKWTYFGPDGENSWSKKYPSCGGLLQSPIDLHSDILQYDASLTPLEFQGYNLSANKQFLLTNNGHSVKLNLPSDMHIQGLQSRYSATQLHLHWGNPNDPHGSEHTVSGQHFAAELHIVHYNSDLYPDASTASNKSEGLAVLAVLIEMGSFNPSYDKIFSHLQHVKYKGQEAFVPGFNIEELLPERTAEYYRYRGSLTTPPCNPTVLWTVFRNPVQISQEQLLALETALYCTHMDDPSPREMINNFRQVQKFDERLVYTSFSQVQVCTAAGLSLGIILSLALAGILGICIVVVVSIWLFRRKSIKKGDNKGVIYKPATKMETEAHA

Consider `CC(CCCC(=O)N1CCC(C(N)=O)(C(=O)NCC(=O)NC2(C(=O)NCCn3cc(C45CC(c6cn7nc(S(N)(=O)=O)sc7n6)(C4)C5)nn3)CCN(C(=O)CC[C@H](C(=O)O)N3CCN(CC(=O)O)CCN(CC(=O)O)CCN(CC(=O)O)CC3)CC2)CC1)(c1ccc(O)cc1)c1ccc(O)cc1.[Lu+3]` [Compound 127.5], for which the Kd at human CA-XII (setting [1]) was 2.5 to 10 nM; at human CA-IX (setting [2]), less than 1 nM.

Take `CC(CCC(=O)N[C@@H](CC(=O)N[C@@H](Cc1cn([C@@H](CCCCn2cc(C34CC(C(=O)Nc5nnc(S(N)(=O)=O)s5)(C3)C4)nn2)C(=O)NCCOCCOCCNC(=O)CN2CCN(CC(=O)O)CCN(CC(=O)O)CCN(CC(=O)O)CC2)nn1)C(=O)O)C(=O)O)(c1ccc(O)cc1)c1ccc(O)cc1.[Lu+3]` [Compound 101.2]: the Kd on human CA-XII (setting [1]) was 2.5 to 10 nM; on human CA-IX (setting [2]), less than 1 nM. For the molecule `NS(=O)(=O)c1nnc(NC(=O)C23CC(c4cn(CCNC(=O)[C@H]5CN(C(=O)CN6CCN(CC(=O)O)CCN(CC(=O)O)CCN(CC(=O)O)CC6)CCN5C(=O)CC[C@H](NC(=O)Cc5n[nH]c6ccccc56)C(=O)O)nn4)(C2)C3)s1.[Lu+3]` [Compound 107.16], the Kd lay within 2.5 to 10 nM at human CA-XII (setting [1]) and 1 to 2.5 nM at human CA-IX (setting [2]). In the case of `NS(=O)(=O)c1nnc(NC(=O)C23CC(c4cn(CCNC(=O)[C@@H]5CN(C(=O)CN6CCN(CC(=O)O)CCN(CC(=O)O)CCN(CC(=O)O)CC6)CCN5C(=O)C[C@H](NC(=O)C[C@H](NC(=O)c5cnc(C6CC6)nc5)C(=O)O)C(=O)O)nn4)(C2)C3)s1.[Lu+3]` [Compound 109.23], the Kd on human CA-XII (setting [1]) is more than 10 nM; on human CA-IX (setting [2]) it was 2.5 to 10 nM. As to `CC(CCCC(=O)N1CCOC[C@H]1C(=O)N[C@@H](CC(=O)N1CCN(C(=O)CCOCCOCCOCCOCCN(CCOCCOCCOCCOCCC(=O)N2CCN(C(=O)C[C@H](NC(=O)[C@@H]3COCCN3C(=O)CCCC(C)(c3ccc(O)cc3)c3ccc(O)cc3)C(N)=O)[C@@H](C(=O)NCCn3cc(C45CC(C(=O)Nc6nnc(S(N)(=O)=O)s6)(C4)C5)nn3)C2)C(=O)CNC(=O)CN2CCN(CC(=O)O)CCN(CC(=O)O)CCN(CC(=O)O)CC2)C[C@@H]1C(=O)NCCn1cc(C23CC(C(=O)Nc4nnc(S(N)(=O)=O)s4)(C2)C3)nn1)C(N)=O)(c1ccc(O)cc1)c1ccc(O)cc1.[Lu+3]` [Compound 131.6], the Kd was 1 to 2.5 nM at human CA-XII (setting [1]) and less than 1 nM at human CA-IX (setting [2]). As to `CC(CCC(=O)N[C@@H](CC(=O)N[C@@H](CC(=O)N1CCN(C(=O)CN2CCN(CC(=O)O)CCN(CC(=O)O)CCN(CC(=O)O)CC2)C[C@H]1C(=O)NCCn1cc(C23CC(C(=O)Nc4nnc(S(N)(=O)=O)s4)(C2)C3)nn1)C(=O)O)C(=O)O)(c1ccccc1)c1ccc(O)cc1.[Lu+3]` (some centres unmarked) [Compound 109.33], the results for the Kd on human CA-XII (setting [1]) and on human CA-IX (setting [2]) were more than 10 nM and 1 to 2.5 nM, respectively. In the same order, the values of `CC(CCC(=O)N[C@@H](CC(=O)N[C@@H](CC(=O)N1CCN(C(=O)[C@H](CCC(=O)NCCOCCOCCOCCOCCOCCOCCOCCOCCC(=O)N[C@@H](CCCCNC(=O)CCCc2ccc(Cl)cc2)C(=O)O)NC(=O)CN2CCN(CC(=O)O)CCN(CC(=O)O)CCN(CC(=O)O)CC2)C[C@H]1C(=O)NCCn1cc(C23CC(C(=O)Nc4nnc(S(N)(=O)=O)s4)(C2)C3)nn1)C(=O)O)C(=O)O)(c1ccc(O)cc1)c1ccc(O)cc1.[Lu+3]` (racemic) [Compound 125.1] are more than 10 nM and 2.5 to 10 nM.

For `CC(CCCC(=O)N1CCC(C(N)=O)(C(=O)NCC(=O)N2CCN(C(=O)CN3CCN(CC(=O)O)CCN(CC(=O)O)CC3)C[C@@H]2C(=O)NCCn2cc(C34CC(C(=O)Nc5nnc(S(N)(=O)=O)s5)(C3)C4)nn2)CC1)(c1ccc(O)cc1)c1ccc(O)cc1.[Cu+2]` [Compound 126.1], the Kd is more than 10 nM at human CA-XII (Chelated Metal: Cu (cold), 25° C., pH 7.4, read-out: CAXII KD) and less than 1 nM on human CA-IX (Chelated Metal: Cu (cold); SPR, 25° C., pH 7.4; read-out: CAIX KD). As to `NS(=O)(=O)c1nnc(NC(=O)C23CC(c4cn(CCNC(=O)[C@@H]5CN(C(=O)CN6CCN(CC(=O)O)CCN(CC(=O)O)CCN(CC(=O)O)CC6)CCN5C(=O)C[C@H](NC(=O)C[C@H](NC(=O)Cc5ccc(S(F)(F)(F)(F)F)cc5)C(=O)O)C(=O)O)nn4)(C2)C3)s1.[Lu+3]` [Compound 109.20], the values for the Kd at human CA-XII (setting [1]) and on human CA-IX (setting [2]) were 2.5 to 10 nM and less than 1 nM, respectively.

Take `NS(=O)(=O)c1nnc(NC(=O)C23CC(c4cn(CCNC(=O)[C@@H]5CN(C(=O)CN6CCN(CC(=O)O)CCN(CC(=O)O)CCN(CC(=O)O)CC6)CCN5C(=O)C[C@H](NC(=O)C[C@H](NCc5ccc(C6CC6)cc5)C(=O)O)C(=O)O)nn4)(C2)C3)s1.[Lu+3]` [Compound 109.21]: the Kd is more than 10 nM on human CA-XII (setting [1]) and less than 1 nM at human CA-IX (setting [2]). For `NS(=O)(=O)c1nnc(NC(=O)C23CCC(c4cn(CCNC(=O)[C@@H]5CN(C(=O)CN6CCN(CC(=O)O)CCN(CC(=O)O)CCN(CC(=O)O)CC6)CCN5C(=O)CC[C@H](NC(=O)C[C@H](NC(=O)CCC5CC5)C(=O)O)C(=O)O)nn4)(CC2)CC3)s1.[Lu+3]` [Compound 109.48], the Kd at human CA-XII (setting [1]) and at human CA-IX (setting [2]) was less than 1 nM each time. For `NS(=O)(=O)c1nnc(NC(=O)C23CC(c4cn(CCNC(=O)[C@@H]5CN(C(=O)CN6CCN(CC(=O)O)CCN(CC(=O)O)CCN(CC(=O)O)CC6)CCN5C(=O)C[C@H](NC(=O)C[C@H](NC(=O)c5ccc(CC6CC6)cc5)C(=O)O)C(=O)O)nn4)(C2)C3)s1.[Lu+3]` [Compound 109.38], the Kd is 2.5 to 10 nM at human CA-XII (setting [1]) and less than 1 nM at human CA-IX (setting [2]). Turning to `NS(=O)(=O)c1nnc(NC(=O)C23CC(c4cn(CCNC(=O)[C@@H]5CN(C(=O)CN6CCN(CC(=O)O)CCN(CC(=O)O)CCN(CC(=O)O)CC6)CCN5C(=O)CNC(=O)C5(C(=O)O)CCN(C(=O)c6n[nH]c7ccccc67)CC5)nn4)(C2)C3)s1.[Lu+3]` [Compound 112.10], the figures for the Kd at human CA-XII (setting [1]) and at human CA-IX (setting [2]) were more than 10 nM and less than 1 nM, respectively.

As to `CC(CCCC(=O)N1CCOC[C@H]1C(=O)N[C@@H](CC(=O)N1CCN(C(=O)CN2CCN(CC(=O)O)CCN(CC(=O)O)CCN(CC(=O)O)CC2)C[C@H]1C(=O)NCCn1cc(C23CC(C(=O)Nc4nnc(S(N)(=O)=O)s4)(C2)C3)nn1)C(=O)O)(c1ccc(O)cc1)c1ccc(O)cc1.[Lu+3]` [Compound 107.29], the Kd was more than 10 nM on human CA-XII (setting [1]) and less than 1 nM on human CA-IX (setting [2]).

Take `NS(=O)(=O)c1nnc(NC(=O)C23CC(c4cn(CCNC(=O)[C@@H]5CN(C(=O)CN6CCN(CC(=O)O)CCN(CC(=O)O)CCN(CC(=O)O)CC6)CCN5C(=O)CNC(=O)C5(C(=O)O)CCN(C(=O)c6ccc(C7CC7)nn6)CC5)nn4)(C2)C3)s1.[Lu+3]` [Compound 112]: the Kd is more than 10 nM on human CA-XII (read-out: CAXII KD, Chelated Metal: Lu-175, 25° C., pH 7.4) and 2.5 to 10 nM at human CA-IX (read-out: CAIX KD; Chelated Metal: Lu-175; SPR, 25° C., pH 7.4). In the case of `NS(=O)(=O)c1nnc(NC(=O)C23CCC(c4cn(CCNC(=O)[C@@H]5CN(C(=O)CN6CCN(CC(=O)O)CCN(CC(=O)O)CCN(CC(=O)O)CC6)CCN5C(=O)CNC(=O)C5(C(=O)O)CCN(C(=O)CCC6CCCCC6)CC5)nn4)(CC2)CC3)s1.[Lu+3]` [Compound 107.10], the Kd on human CA-XII (setting [1]) and on human CA-IX (setting [2]) was less than 1 nM throughout. Regarding `CC(CCC(=O)N[C@@H](CC(=O)N[C@@H](CC(=O)N1CCN(C(=O)CN2CCN(CC(=O)O)CCN(CC(=O)O)CCN(CC(=O)O)CC2)C[C@H]1C(=O)NCCn1nnc(C23CC(C(=O)Nc4nnc(S(N)(=O)=O)s4)(C2)C3)c1C(=O)O)C(=O)O)C(=O)O)(c1ccc(O)cc1)c1ccc(O)cc1.[Lu+3]` [Compound 107.60], the Kd at human CA-XII (setting [1]) was 2.5 to 10 nM; at human CA-IX (setting [2]) it was less than 1 nM.

As to `Cc1cc(-c2cn(CCNC(=O)[C@@H]3CN(C(=O)CN4CCN(CC(=O)O)CCN(CC(=O)O)CCN(CC(=O)O)CC4)CCN3C(=O)C[C@H](NC(=O)C[C@H](NC(=O)CCC(C)(c3ccc(O)cc3)c3ccc(O)cc3)C(=O)O)C(=O)O)nn2)ccc1C(=O)Nc1nnc(S(N)(=O)=O)s1.[Lu+3]` [Compound 107.40], at human CA-XII (setting [1]), the Kd is less than 1 nM.
